Measurements from patent US20240101542A1, “ERAP INHIBITORS” (UNIVERSITE DE LILLE, priority 2020, published 2024).

Legend:
ERAP2 = ERAP2 (Homo sapiens (Human), UniProt Q6P179); assay: In vitro ERAP activity assay, ERAP2 with R-AMC substrate; type: biochemical; design: IC50 on ERAP2 using R-AMC as substrate: scale not given here; conditions: for IC50 / IC50 on ERAP2 using R-AMC as substrate: R-AMC as substrate; for IC50: read-out: IC50 on ERAP2 using R-AMC as substrate
Procedure: (§1) The enzymatic activity of ERAP1 or 2 was assayed using L-AMC (L-Leucine-7-amido-4-methylcoumarin hydrochloride) or R-AMC (L-Arginine-7-amido-4-methylcoumarin hydrochloride) respectively. Hepes at 50 mM with 100 mM NaCl at pH 7 was used as buffer. Briefly, 60 nL of test compounds were added in 384-wells plates (dark, non-binding surface) by acoustic dispensing with nanoacoustic dispenser Echo (Labcyte) and pre-incubated 30 minutes at ambient temperature with 10 μL of ERAP 0.8 μg/mL or 1 μg/mL or vehicle. The reaction was then started with the addition of 10 μL of substrate at 10 μM. The final concentration of ERAP, substrate and DMSO was 0.5 μg/mL, 5 μM and 0.4% respectively. For the kinetic readout a Victor 3V (Perkin-Elmer) was used with excitation at 380 nm and emission at 450 nm. The fluorescence was measured each 3 minutes during one hour.
(§2) The Z and Z′ factors were calculated according to J.-H. Zhang, T. D. Y. Chung, K. R. Oldenburg, A Simple Statistical Parameter for Use in Evaluation and Validation of High Throughput Screening Assays, J. Biomol. Screen., 4 (1999) 67-73. Data analysis was performed using Xlfit® v 5.0 or GraphPad Prism® v 4.0.
(§3) Percentages of inhibition at different concentrations were obtained as described above and IC50s were carried out as 8-point dose response curves and reported as the average of at least three independent measurements. […] Data analysis was performed using Xlfit® v 5.0 or GraphPad Prism® v 4.0. Nonlinear curve fitting and statistical analysis was done using built-in functions.

ERAP1 = ERAP1 (Homo sapiens (Human), UniProt Q9NZ08); assay: In vitro ERAP activity assay, ERAP1 with L-AMC substrate; type: biochemical; conditions: L-AMC as substrate; read-out: IC50 on ERAP1 or ERAAP using L-AMC as substrate
ERAP1, sequence (Q9NZ08 whole entry): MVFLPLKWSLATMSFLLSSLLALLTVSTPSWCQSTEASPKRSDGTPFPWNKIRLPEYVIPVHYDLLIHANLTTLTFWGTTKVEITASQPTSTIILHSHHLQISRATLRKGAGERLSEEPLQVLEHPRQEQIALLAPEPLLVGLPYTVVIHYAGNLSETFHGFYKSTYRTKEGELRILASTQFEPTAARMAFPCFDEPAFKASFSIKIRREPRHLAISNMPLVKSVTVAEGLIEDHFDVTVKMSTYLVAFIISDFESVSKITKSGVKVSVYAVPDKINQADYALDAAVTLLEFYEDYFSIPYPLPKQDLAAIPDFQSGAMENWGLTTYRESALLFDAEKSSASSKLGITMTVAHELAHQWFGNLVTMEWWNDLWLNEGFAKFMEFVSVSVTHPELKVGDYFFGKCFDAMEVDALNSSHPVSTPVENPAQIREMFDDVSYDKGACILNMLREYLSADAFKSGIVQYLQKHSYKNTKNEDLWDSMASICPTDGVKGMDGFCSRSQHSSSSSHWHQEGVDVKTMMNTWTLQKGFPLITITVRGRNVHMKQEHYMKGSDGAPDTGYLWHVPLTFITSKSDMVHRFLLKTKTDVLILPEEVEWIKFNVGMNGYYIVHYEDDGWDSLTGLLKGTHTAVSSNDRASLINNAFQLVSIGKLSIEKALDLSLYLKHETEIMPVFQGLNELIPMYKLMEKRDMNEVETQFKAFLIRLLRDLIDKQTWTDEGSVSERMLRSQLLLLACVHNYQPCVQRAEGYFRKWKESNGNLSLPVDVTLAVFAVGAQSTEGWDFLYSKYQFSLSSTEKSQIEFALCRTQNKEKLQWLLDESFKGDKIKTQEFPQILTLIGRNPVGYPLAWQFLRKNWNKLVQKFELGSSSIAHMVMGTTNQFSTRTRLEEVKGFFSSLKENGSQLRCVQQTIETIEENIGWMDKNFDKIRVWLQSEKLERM
Procedure: as §1, §2, §3

ERAP2, sequence (Q6P179 whole entry): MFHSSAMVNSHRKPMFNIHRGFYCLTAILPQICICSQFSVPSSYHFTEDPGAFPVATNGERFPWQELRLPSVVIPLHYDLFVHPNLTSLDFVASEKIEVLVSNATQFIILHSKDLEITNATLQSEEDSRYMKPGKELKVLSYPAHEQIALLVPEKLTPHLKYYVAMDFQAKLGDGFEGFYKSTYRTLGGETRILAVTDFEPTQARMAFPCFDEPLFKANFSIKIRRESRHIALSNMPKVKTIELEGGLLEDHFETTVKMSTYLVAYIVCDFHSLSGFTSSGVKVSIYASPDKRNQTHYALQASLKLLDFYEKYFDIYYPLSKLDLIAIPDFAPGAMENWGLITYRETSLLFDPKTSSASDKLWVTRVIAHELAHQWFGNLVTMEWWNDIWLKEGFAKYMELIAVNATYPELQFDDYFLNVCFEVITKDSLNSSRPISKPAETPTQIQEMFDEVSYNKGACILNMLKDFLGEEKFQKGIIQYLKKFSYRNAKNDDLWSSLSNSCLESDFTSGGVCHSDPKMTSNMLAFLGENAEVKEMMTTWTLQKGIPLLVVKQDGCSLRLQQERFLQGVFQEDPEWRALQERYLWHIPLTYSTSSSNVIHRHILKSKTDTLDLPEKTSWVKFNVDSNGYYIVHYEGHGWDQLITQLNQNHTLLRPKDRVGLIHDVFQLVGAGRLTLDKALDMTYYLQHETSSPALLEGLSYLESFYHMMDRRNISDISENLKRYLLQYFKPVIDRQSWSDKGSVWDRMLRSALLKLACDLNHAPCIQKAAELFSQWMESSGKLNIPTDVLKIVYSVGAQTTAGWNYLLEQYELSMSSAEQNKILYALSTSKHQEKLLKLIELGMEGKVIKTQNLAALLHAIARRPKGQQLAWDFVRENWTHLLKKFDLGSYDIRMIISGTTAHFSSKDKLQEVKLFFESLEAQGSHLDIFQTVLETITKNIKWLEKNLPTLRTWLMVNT

IC50 (ERAP2)	IC50 (ERAP1)	IC50 on ERAP2 using R-AMC as substrate (ERAP2)	inhibition at 2000 µM (ERAP2; at 2 mM, ERAP1 or 2 activity assay, read-out: inhibition (reference inhibitor))	SMILES
> 5000 nM	< 5 µM	–	–	COc1ccc(C[C@@H](C(=O)NO)n2cc(C3CCCCN3S(=O)(=O)c3ccc(-c4ccccc4)s3)nn2)cc1 (stereo partly drawn) [Compound 58]
< 500 nM	> 5 µM	–	–	O=C(NO)[C@H](Cc1ccc(O)c(F)c1)n1cc(CNS(=O)(=O)c2ccc(-c3ccccc3)s2)nn1 [Compound 45]
< 500 nM	< 5 µM	–	–	COc1ccc(C[C@@H](C(=O)NO)n2cc(CNS(=O)(=O)c3ccc(-c4ccccn4)s3)nn2)cc1Cl [Compound 53]
< 500 nM	–	–	–	COCCOc1ccc(C[C@@H](C(=O)NO)n2cc(CNS(=O)(=O)c3ccc(-c4ccccn4)s3)nn2)cc1 [Compound 51]
< 500 nM	–	–	–	COc1ccc(C[C@@H](C(=O)NO)n2cc(CN(C)S(=O)(=O)c3ccc(-c4ccccn4)s3)nn2)cc1 [Compound 46]
< 500 nM	> 5 µM	–	–	CNC(=O)c1cccc(-c2ccc(S(=O)(=O)NCc3cn([C@@H](Cc4ccc(OC)cc4)C(=O)NO)nn3)s2)c1 [Compound 43]
> 5000 nM	< 5 µM	–	–	COc1ccc(C[C@@H](C(=O)NO)n2cc([C@@H]3CCCN3S(=O)(=O)c3ccc(-c4ccccc4)s3)nn2)cc1 [Compound 59]
< 500 nM	< 5 µM	–	–	COc1ccc(C[C@@H](C(=O)NO)n2cc(CNS(=O)(=O)c3cnc(-c4ccccc4)s3)nn2)cc1 [Compound 56]
> 5000 nM	–	–	–	COc1ccccc1C[C@@H](C(=O)NO)n1cc(CNS(=O)(=O)c2ccc(-c3ccccn3)s2)nn1 [Compound 50]
< 500 nM	< 5 µM	–	–	N#Cc1ccc(C[C@@H](C(=O)NO)n2cc(CNS(=O)(=O)c3ccc(-c4ccccc4)s3)nn2)cc1 [Compound 60]
< 500 nM	< 0.5 µM	–	–	COc1ccc(C[C@@H](C(=O)NO)n2cc(CNS(=O)(=O)c3ccc(-c4ccccc4)s3)nn2)cc1OC [Compound 42]
< 500 nM	< 5 µM	–	–	N=C(NO)c1ccc(C[C@@H](C(=O)NO)n2cc(CNS(=O)(=O)c3ccc(-c4ccccc4)s3)nn2)cc1 [Compound 55]
< 500 nM	–	–	–	COc1ccc(C[C@@H](C(=O)NO)n2cc([C@H](C)NS(=O)(=O)c3ccc(-c4ccccn4)s3)nn2)cc1 [Compound 47]
< 500 nM	> 5 µM	–	–	COc1cccc(C[C@@H](C(=O)NO)n2cc(CNS(=O)(=O)c3ccc(-c4ccccn4)s3)nn2)c1 [Compound 49]
–	> 5 µM	+ +	–	COc1ccc(C[C@@H](C(=O)NO)n2cc(CN(C3CC3)S(=O)(=O)c3ccc(-c4ccccn4)s3)nn2)cc1 [Compound 57]
< 500 nM	< 5 µM	–	–	C#Cc1ccc(C[C@@H](C(=O)NO)n2cc(CNS(=O)(=O)c3ccc(-c4ccccc4)s3)nn2)cc1 [Compound 54]
< 5000 nM	–	–	–	COc1ccc(C[C@@H](C(=O)NO)n2cc([C@@H](C)NS(=O)(=O)c3ccc(-c4ccccn4)s3)nn2)cc1 [Compound 48]

Second part, the molecule before the results:

SMILES	IC50 (ERAP2)	IC50 (ERAP1)	IC50 on ERAP2 using R-AMC as substrate (ERAP2)	inhibition at 2000 µM (ERAP2; at 2 mM, ERAP1 or 2 activity assay, read-out: inhibition (reference inhibitor))
O=C(NO)[C@H](Cc1ccc(O)cc1)n1cc(CNS(=O)(=O)c2cccs2)nn1 [Compound 15]	–	> 5 µM	+ +	–
O=C(C[C@H](Cc1ccc(O)cc1)n1nncc1CNS(=O)(=O)c1ccc(-c2ccccc2)s1)NO [Compound 31]	–	–	+ +	–
CN(Cc1cn([C@@H](Cc2ccc(O)cc2)C(=O)NO)nn1)S(=O)(=O)c1ccc(-c2ccccc2)s1 [Compound 13]	–	> 5 µM	+ +	–
O=C(NO)[C@H](Cc1ccc2c(c1)OCO2)n1cc(CNS(=O)(=O)c2ccc(-c3ccccn3)s2)nn1 [Compound 37]	< 500 nM	> 5 µM	–	–
Cc1ccc(S(=O)(=O)NCc2cn([C@@H](Cc3ccc(O)cc3)C(=O)NO)nn2)s1 [Compound 16]	–	–	+ +	–
COc1ccc(C[C@@H](C(=O)NO)n2cc(CNS(=O)(=O)c3ccc(-c4ccncc4)s3)nn2)cc1 [Compound 36]	< 500 nM	> 5 µM	–	–
CN(Cc1cnnn1[C@H](CC(=O)NO)Cc1ccc(O)cc1)S(=O)(=O)c1ccc(-c2ccccc2)s1 [Compound 32]	–	–	+ +	–
CNC(=O)c1ccc(-c2ccc(S(=O)(=O)NCc3cn([C@@H](Cc4ccc(OC)cc4)C(=O)NO)nn3)s2)cc1 [Compound 28]	< 500 nM	< 5 µM	–	–
NCc1ccc(-c2ccc(S(=O)(=O)NCc3cn([C@@H](Cc4ccc(O)cc4)C(=O)NO)nn3)s2)cc1 [Compound 12]	–	> 5 µM	+ +	–
CN(Cc1cn([C@@H](Cc2c[nH]c3ccccc23)C(=O)NO)nn1)S(=O)(=O)c1ccc(-c2ccccc2)s1 [Compound 3]	–	> 5 µM	+ +	–
CC(C)C[C@H](NC(=O)[C@@H](O)[C@H](N)Cc1ccccc1)C(=O)O [Bestatin, reference compound]	–	–	–	100%
O=C(NO)[C@H](Cc1ccc(O)cc1)n1cc(CNS(=O)(=O)c2ccc(Br)s2)nn1 [Compound 14]	–	> 5 µM	+ +	–
O=C(NO)[C@@H](Cc1ccc(O)cc1)n1cc(CNS(=O)(=O)c2ccc(-c3ccccn3)s2)nn1 [Compound 20]	–	> 5 µM	+ +	–
O=C(NO)[C@H](Cc1ccc(O)cc1)n1cc(CNS(=O)(=O)c2sccc2Br)nn1 [Compound 18]	–	–	+ +	–
O=C(NO)[C@@H](Cc1ccc(O)cc1)n1nncc1CNS(=O)(=O)c1ccc(-c2ccccc2)s1 [Compound 35]	> 5000 nM	–	–	–
O=C(C[C@@H](Cc1c[nH]c2ccccc12)n1nncc1CNS(=O)(=O)c1ccc(-c2ccccc2)s1)NO [Compound 30]	> 5000 nM	–	–	–
O=C(NO)[C@@H](Cc1c[nH]c2ccccc12)n1cc(CNS(=O)(=O)c2ccc(-c3ccccc3)s2)nn1 [Compound 2]	> 5000 nM	> 5 µM	–	–
O=C(NO)[C@H](Cc1ccc(OC(F)(F)F)cc1)n1cc(CNS(=O)(=O)c2ccc(-c3ccccc3)s2)nn1 [Compound 22]	< 500 nM	–	–	–

SMILES	IC50 (ERAP2)	IC50 (ERAP1)	IC50 on ERAP2 using R-AMC as substrate (ERAP2)	inhibition at 2000 µM (ERAP2; at 2 mM, ERAP1 or 2 activity assay, read-out: inhibition (reference inhibitor))
O=C(C[C@@H](Cc1c[nH]c2ccccc12)n1cc(CNS(=O)(=O)c2ccc(-c3ccccc3)s2)nn1)NO [Compound 1]	> 5000 nM	–	–	–
CN(Cc1cn([C@H](CC(=O)NO)Cc2ccc(O)cc2)nn1)S(=O)(=O)c1ccc(-c2ccccc2)s1 [Compound 9]	> 5000 nM	–	–	–
CC(C)(C)Oc1ccc(C[C@@H](C(=O)NO)n2cc(CNS(=O)(=O)c3ccc(-c4ccccn4)s3)nn2)cc1 [Compound 27]	< 500 nM	–	–	–
O=C(NO)[C@H](Cc1ccc(OC(F)(F)F)cc1)n1cc(CNS(=O)(=O)c2ccc(-c3ccccn3)s2)nn1 [Compound 21]	< 500 nM	–	–	–
O=C(C[C@H](Cc1ccc(O)cc1)n1cc(CNS(=O)(=O)c2ccc(-c3ccccc3)s2)nn1)NO [Compound 7]	–	–	+ +	–
COc1ccc(C[C@@H](C(=O)NO)n2cc(CNS(=O)(=O)c3ccc(-c4cccnc4)s3)nn2)cc1 [Compound 38]	< 500 nM	–	–	–
O=C(NO)[C@H](Cc1ccc(O)c(Cl)c1)n1cc(CNS(=O)(=O)c2ccc(-c3ccccn3)s2)nn1 [Compound 39]	< 500 nM	< 5 µM	–	–
O=C(NO)[C@@H](Cc1ccc(O)cc1)n1cc(CNS(=O)(=O)c2ccc(-c3ccccc3)s2)nn1 [Compound 8]	–	> 5 µM	+ +	–
O=C(NO)[C@H](Cc1ccc(O)cc1)n1cc(CNS(=O)(=O)c2ccc(-c3ccccn3)s2)nn1 [Compound 19]	–	> 5 µM	+ +	–
O=C(NO)[C@H](Cc1ccc(O)cc1)n1nncc1CNS(=O)(=O)c1ccc(-c2ccccc2)s1 [Compound 34]	–	–	+ +	–
COc1ccc(C[C@@H](C(=O)NO)n2cc(CNS(=O)(=O)c3ccc(-c4ccccn4)s3)nn2)cc1OC [Compound 41]	< 500 nM	< 5 µM	–	–
CC(C)(C)Oc1ccc(C[C@@H](C(=O)NO)n2cc(CNS(=O)(=O)c3ccc(-c4ccccc4)s3)nn2)cc1 [Compound 26]	< 500 nM	–	–	–
O=C(NO)[C@H](Cc1ccc(O)cc1)n1cc(CNS(=O)(=O)c2ccsc2)nn1 [Compound 17]	–	> 5 µM	+ +	–
O=C(C[C@@H](Cc1ccc2ccccc2c1)n1cc(CNS(=O)(=O)c2ccc(-c3ccccc3)s2)nn1)NO [Compound 6]	–	> 5 µM	+ +	–
COc1ccc(C[C@@H](C(=O)NO)n2cc(CNS(=O)(=O)c3ccc(-c4ccccc4)s3)nn2)cc1 [Compound 24]	–	> 5 µM	–	–
O=C(C[C@H](Cc1ccc(O)cc1)n1nncc1CNS(=O)(=O)c1ccc(-c2ccccn2)s1)NO [Compound 33]	–	> 5 µM	–	–
O=C(NO)[C@H](Cc1ccc(O)cc1)n1cc(CNS(=O)(=O)c2ccc(-c3cccnc3)s2)nn1 [Compound 29]	< 500 nM	–	–	–
CNC(=O)c1ccc(-c2ccc(S(=O)(=O)NCc3cn([C@@H](Cc4ccc(O)cc4)C(=O)NO)nn3)s2)cc1 [Compound 11]	–	–	+ +	–
